Assay results as given in ChEMBL document CHEMBL5042501, “Gwanakosides A and B, 6-Deoxy-α-l-talopyranose-Bearing Aromatic Metabolites from a Streptomyces sp. and Coculture with Pandoraea sp” (J Nat Prod, 2022).
≈ marks a conversion by molar mass, not a printed value.

Columns and labels:
[1] = tested on: SK-HEP1; experiment: Antiproliferative activity against human SK-HEP1 cells assessed as reduction in cell viability incubated for 72 hr by SRB assay; assay type: functional, cell-based; conditions: SK-HEP1, 72 h
[2] = Inhibition of Staphylococcus aureus ATCC6538p Sortase A incubated for 1 hr by fluorescence spectrophotometric analysis
[3] = tested on: A498; experiment: Antiproliferative activity against human A498 cells assessed as reduction in cell viability incubated for 72 hr by SRB assay; assay type: functional, cell-based; conditions: A498, 72 h
[4] = tested on: Trichophyton rubrum; experiment: Antifungal activity against Trichophyton rubrum NBRC 9185 assessed as fungal growth inhibition incubated for 96 hrs; assay type: functional
[5] = tested on: Staphylococcus aureus; experiment: Antibacterial activity against Staphylococcus aureus ATCC 25923 assessed as inhibition of bacterial growth incubated for 24 hr by CLSI based broth microdilution method; assay type: functional
[6] = tested on: SNU-638; experiment: Antiproliferative activity against human SNU-638 cells assessed as reduction in cell viability incubated for 72 hr by SRB assay; assay type: functional, cell-based; conditions: SNU-638, 72 h
[7] = tested on: Enterococcus faecium; experiment: Antibacterial activity against Enterococcus faecium ATCC 19434 assessed as inhibition of bacterial growth incubated for 24 hr by CLSI based broth microdilution method; assay type: functional
[8] = tested on: Candida albicans; experiment: Antifungal activity against Candida albicans ATCC 10231 assessed as fungal growth inhibition incubated for 24 hrs; assay type: functional
[9] = tested on: Enterococcus faecalis; experiment: Antibacterial activity against Enterococcus faecalis ATCC 19433 assessed as inhibition of bacterial growth incubated for 24 hr by CLSI based broth microdilution method; assay type: functional
[10] = tested on: Escherichia coli; experiment: Antibacterial activity against Escherichia coli ATCC 25922 assessed as inhibition of bacterial growth incubated for 24 hr by CLSI based broth microdilution method; assay type: functional
[11] = tested on: Mycobacterium tuberculosis; experiment: Antibacterial activity against Mycobacterium tuberculosis mc2 6230 assessed as bacterial growth inhibition incubated for 5 days by resazurin microtiter assay; assay type: functional; conditions: mc2 6230, 120 h, time 5 day
[12] = tested on: HCT-116; experiment: Antiproliferative activity against human HCT116 cells assessed as reduction in cell viability incubated for 72 hr by SRB assay; assay type: functional, cell-based; conditions: HCT-116, 72 h
[13] = tested on: Klebsiella pneumoniae; experiment: Antibacterial activity against Klebsiella pneumoniae ATCC 10031 assessed as inhibition of bacterial growth incubated for 24 hr by CLSI based broth microdilution method; assay type: functional
[14] = tested on: MDA-MB-231; experiment: Antiproliferative activity against human MDA-MB-231 cells assessed as reduction in cell viability incubated for 72 hr by SRB assay; assay type: functional, cell-based; conditions: MDA-MB-231, 72 h
[15] = tested on: Aspergillus fumigatus; experiment: Antifungal activity against Aspergillus fumigatus HIC 6094 assessed as fungal growth inhibition incubated for 48 hrs; assay type: functional
[16] = tested on: Trichophyton mentagrophytes; experiment: Antifungal activity against Trichophyton mentagrophytes IFM 40996 assessed as fungal growth inhibition incubated for 96 hrs; assay type: functional
[17] = tested on: Salmonella enterica; experiment: microbe, parasite or virus in culture; conditions: ATCC 14028, 24 h
Description: Antibacterial activity against Salmonella enterica ATCC 14028 assessed as inhibition of bacterial growth incubated for 24 hr by CLSI based broth microdilution method

Q: For `Cc1c(Cl)c(O[C@@H]2O[C@@H](C)[C@@H](O)[C@@H](O)[C@H]2O)c2cc(O[C@@H]3O[C@@H](C)[C@@H](O)[C@@H](O)[C@H]3O)ccc2c1Cl`, which IC50 [1] is on record?
A: 14.7 µM

Q: What about the IC50 [2] of the same compound?
A: 63.3 µg/mL (≈ 118 µM)

Q: What about the IC50 [3] of the same compound?
A: 18.8 µM

Q: What about the MIC [4] of the same compound?
A: > 128 µg/mL

Q: And the MIC [5]?
A: 8 µg/mL (≈ 14.9 µM)

Q: And the IC50 [6]?
A: 8.6 µM

Q: And the MIC [7]?
A: 16 µg/mL (≈ 29.9 µM)

Q: And the MIC [8]?
A: > 128 µg/mL

Q: And the MIC [9]?
A: 16 µg/mL (≈ 29.9 µM)

Q: What about the MIC [10] of the same compound?
A: > 128 µg/mL

Q: And the MIC [11]?
A: 15 µg/mL (≈ 28 µM)

Q: What about the IC50 [12] of the same compound?
A: 5.6 µM

Q: What about the MIC [13] of the same compound?
A: 32 µg/mL (≈ 59.8 µM)

Q: And the IC50 [14]?
A: 19.4 µM

Q: And the MIC [15]?
A: > 128 µg/mL

Q: And the MIC [16]?
A: > 128 µg/mL

Q: And the MIC [17]?
A: 16 µg/mL (≈ 29.9 µM)

Q: Which IC50 [1] does the source give for `Cc1cc2c(c(O[C@@H]3O[C@@H](C)[C@@H](O)[C@@H](O)[C@H]3O)c1)-c1cc3c(c(O)c1[C@@H](O)C2)C(=O)c1c(O)cc(O)cc1C3=O` here?
A: > 20 µM

Q: And the IC50 [3]?
A: > 20 µM

Q: And the MIC [5]?
A: > 128 µg/mL

Q: And the IC50 [6]?
A: > 20 µM

Q: What about the MIC [7] of the same compound?
A: 128 µg/mL (≈ 233 µM)

Q: What about the MIC [9] of the same compound?
A: > 128 µg/mL

Q: What about the MIC [10] of the same compound?
A: > 128 µg/mL

Q: And the IC50 [12]?
A: > 20 µM

Q: What about the MIC [13] of the same compound?
A: > 128 µg/mL

Q: What about the IC50 [14] of the same compound?
A: > 20 µM

Q: What about the MIC [17] of the same compound?
A: > 128 µg/mL

Q: Which MIC [5] does the source give for `CC1(C)S[C@@H]2[C@H](NC(=O)[C@H](N)c3ccccc3)C(=O)N2[C@H]1C(=O)O` [AMPICILLIN] here?
A: 0.13 µg/mL (≈ 0.372 µM)

Q: What about the MIC [7] of the same compound?
A: 0.25 µg/mL (≈ 0.715 µM)

Q: And the MIC [9]?
A: 0.5 µg/mL (≈ 1.43 µM)

Q: What about the MIC [10] of the same compound?
A: 8 µg/mL (≈ 22.9 µM)

Q: What about the MIC [17] of the same compound?
A: 0.13 µg/mL (≈ 0.372 µM)

Q: Which MIC50 [11] does the source give for `COc1nc2ccc(Br)cc2cc1[C@@H](c1ccccc1)[C@@](O)(CCN(C)C)c1cccc2ccccc12` [BEDAQUILINE] here?
A: 0.5 µg/mL (≈ 0.9 µM)

Q: With `COc1cc([C@@H]2c3cc4c(cc3[C@@H](O[C@@H]3O[C@@H]5CO[C@@H](C)O[C@H]5[C@H](O)[C@H]3O)[C@H]3COC(=O)[C@H]23)OCO4)cc(OC)c1O` [ETOPOSIDE] as the compound, how does the IC50 [1] read?
A: 0.22 µM

Q: And the IC50 [3]?
A: 0.23 µM

Q: What about the IC50 [6] of the same compound?
A: 0.4 µM

Q: And the IC50 [12]?
A: 0.25 µM

Q: And the IC50 [14]?
A: 2.8 µM

Q: Which MIC [13] does the source give for `CN(C)[C@@H]1C(O)=C(C(N)=O)C(=O)[C@@]2(O)C(O)=C3C(=O)c4c(O)cccc4[C@@](C)(O)[C@H]3C[C@@H]12` [TETRACYCLINE] here?
A: 0.25 µg/mL (≈ 0.563 µM)
